Data published in patent publication US6770669B1, “Amidine derivatives, preparation and use thereof as medicines” (Societe de Conseils de Recherches et d'Applications …, priority 1999, dated 2004).

How the values were obtained:
[1] = target: T1, neuronal constitutive NO synthase (Rattus norvegicus, UniProt P29476); assay: Effects on neuronal constitutive NO synthase of a rat's cerebellum ([3H]L-arginine to [3H]L-citrulline conversion); type: biochemical; settings: rat cerebellum homogenate; conversion of [3H]L-arginine to [3H]L-citrulline
T1 construct: The reaction is initiated by adding 50 μl of homogenate; from tissue; host or cells: cerebellum of Sprague-Dawley rats (homogenate centrifuged at 21000 g)
Description: Study of the Effects on Neuronal Constitutive NO Synthase of a Rat's Cerebellum
The inhibitory activity of the products of the invention is determined by measuring their effects on the conversion by NO synthase of [^3H]L-arginine to [^3H]L-citrulline according to the modified method of Bredt and Snyder (Proc. Natl. Acad. Sci. USA. (1990) 87: 682-685). The cerebellums of Sprague-Dawley rats (300 g—Charles River) are rapidly removed, dissected at 4° C. and homogenized in a volume of extraction buffer (HEPES 50 mM, EDTA 1 mM, pH 7.4, pepstatin A […], leupeptin […]). The homogenates are then centrifuged at 21000 g for 15 min at 4° C. Dosage is carried out in glass test tubes in which 100 μl of incubation buffer containing 100 mM of HEPES (pH 7.4), 2 mM of EDTA, 2.5 mM of CaCl2, 2 mM of dithiotreitol, 2 mM of reduced NADPH and 10 μg/ml of calmodulin are distributed. 25 μl of a solution containing 100 nM of [^3H]L-arginine (Specific activity: 56.4 Ci/mmole, Amersham) and 40 μM of non-radioactive L-arginine is added. The reaction is initiated by adding 50 μl of homogenate, the final volume being 200 μl (the missing 25 μl are either water or the tested product). […] After passing the samples through a 1 ml column of DOWEX resin, the radioactivity is quantified by a liquid scintillation spectrometer.

MAO-B = target: T2, MAO-B (Rattus norvegicus, UniProt P19643); assay: Effects on the bond of a specific ligand of MAO-B, [3H]Ro 19-6327 (rat cortex mitochondrial preparation); type: binding; settings: [3H]Ro 19-6327 33 nM, 1 hour at 37° C.
T2 construct: 100 μl of the mitochondrial preparation (2 mg protein/ml) is incubated for 1 hour at 37° C; from tissue; host or cells: rat cortex, mitochondrial fraction
T2 sequence (P19643 1-520): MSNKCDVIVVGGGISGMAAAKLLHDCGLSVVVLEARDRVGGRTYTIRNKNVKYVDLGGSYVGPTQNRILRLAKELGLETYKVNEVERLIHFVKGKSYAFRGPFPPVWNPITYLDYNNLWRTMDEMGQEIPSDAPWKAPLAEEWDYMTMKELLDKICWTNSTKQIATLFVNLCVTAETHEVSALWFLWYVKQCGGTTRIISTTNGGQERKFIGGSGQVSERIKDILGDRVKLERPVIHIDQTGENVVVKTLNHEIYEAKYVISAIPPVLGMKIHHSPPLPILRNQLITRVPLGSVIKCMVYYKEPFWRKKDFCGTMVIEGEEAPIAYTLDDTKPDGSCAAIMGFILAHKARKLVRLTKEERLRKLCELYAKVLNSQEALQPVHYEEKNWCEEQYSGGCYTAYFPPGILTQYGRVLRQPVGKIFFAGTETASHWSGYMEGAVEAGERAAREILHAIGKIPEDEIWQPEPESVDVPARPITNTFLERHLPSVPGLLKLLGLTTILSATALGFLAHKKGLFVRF
Description: Study of the Effects on the Bond of a Specific Ligand of MAO-B, [^3H]Ro 19-6327
The inhibitory activity of the products of the invention is determined by measuring their effects on the bond of a specific ligand of MAO-B, [^3H]Ro 19-6327.
A) Mitochondrial Preparation of the Cortex of Rats
The mitochondrial preparation of the cortex of rats is carried out according to the method described in Cesura A M, Galva M D, Imhof R and Da Prada M, J. Neurochem. 48 (1987), 170-176. The rats are decapitated and their cortex is removed, homogenized in 9 volumes of a 0.32 M sucrose buffer, buffered to pH 7.4 with 5 mM of HEPES, then centrifuged at 800 g for 20 minutes. The supernatants are recovered and the pellets are washed twice with the 0.32 M sucrose buffer as previously. The collected supernatants are centrifuged at 10000 g for 20 minutes. […] The proteinic content of the preparation is determined by the Lowry method.
100 μl of the mitochondrial preparation (2 mg protein/ml) is incubated for 1 hour at 37° C. in an Eppendorf tube, in the presence of 100 μl of [^3H]Ro 19-6327 (33 nM, final concentration) and 100 μl of Tris buffer containing or not containing the inhibitors. […] The radioactivity is determined by counting the samples using liquid scintillation.

IC50 [1]: < 3.5 µM
IC50 (MAO-B): < 25 µM
melting point: 109 to 110 °C
Compound: C#CCN(C)Cc1ccc(N=C(N)c2cccs2)cc1 [Example 1, N′-(4-{[methyl(2-propynyl)amino]methyl}phenyl)-2-thiophenecarboximidamide]
